According to the NIST ThermoML archive (doi:10.1016/j.tca.2014.05.034):
± gives the expanded uncertainty stated by the source.

Assay: xn = mol fraction of the nth substance listed
Conditions: 100 kPa, Liquid; for kinematic viscosity: Capillary tube (Ostwald / Ubbelohde) method; for mass density: Pycnometric method

## NCCN [ethane-1,2-diamine] + OCCOCCO
298.15 K, x1 = 0.085
  kinematic viscosity: 2.94e-05 ± 2e-07 m2/s
  mass density: 1104.7 ± 0.7 kg/m3
298.15 K, x1 = 0.164
  kinematic viscosity: 3.37e-05 ± 3e-07 m2/s
  mass density: 1096.3 ± 0.7 kg/m3
298.15 K, x1 = 0.2376
  kinematic viscosity: 3.68e-05 ± 3e-07 m2/s
  mass density: 1087.5 ± 0.7 kg/m3
298.15 K, x1 = 0.3062
  kinematic viscosity: 3.81e-05 ± 3e-07 m2/s
  mass density: 1078.1 ± 0.7 kg/m3
298.15 K, x1 = 0.3705
  kinematic viscosity: 3.7e-05 ± 3e-07 m2/s
  mass density: 1068.3 ± 0.7 kg/m3
298.15 K, x1 = 0.4308
  kinematic viscosity: 3.36e-05 ± 3e-07 m2/s
  mass density: 1057.7 ± 0.7 kg/m3
298.15 K, x1 = 0.4874
  kinematic viscosity: 2.87e-05 ± 2e-07 m2/s
  mass density: 1046.5 ± 0.7 kg/m3
298.15 K, x1 = 0.5407
  kinematic viscosity: 2.31e-05 ± 2e-07 m2/s
  mass density: 1034.6 ± 0.7 kg/m3
298.15 K, x1 = 0.5909
  kinematic viscosity: 1.81e-05 ± 2e-07 m2/s
  mass density: 1022.5 ± 0.7 kg/m3
298.15 K, x1 = 0.6384
  kinematic viscosity: 1.4e-05 ± 1e-07 m2/s
  mass density: 1010.7 ± 0.7 kg/m3
298.15 K, x1 = 0.6834
  kinematic viscosity: 1.06e-05 ± 1e-07 m2/s
  mass density: 997.9 ± 0.7 kg/m3
298.15 K, x1 = 0.7259
  kinematic viscosity: 8.32e-06 ± 7e-08 m2/s
  mass density: 986.3 ± 0.7 kg/m3
298.15 K, x1 = 0.7663
  kinematic viscosity: 6.39e-06 ± 5e-08 m2/s
  mass density: 973.7 ± 0.7 kg/m3
298.15 K, x1 = 0.8047
  kinematic viscosity: 4.97e-06 ± 4e-08 m2/s
  mass density: 961.5 ± 0.7 kg/m3
298.15 K, x1 = 0.876
  kinematic viscosity: 3.22e-06 ± 3e-08 m2/s
  mass density: 938.1 ± 0.7 kg/m3
298.15 K, x1 = 0.9408
  kinematic viscosity: 2.23e-06 ± 2e-08 m2/s
  mass density: 916.1 ± 0.7 kg/m3
298.15 K, x1 = 1
  kinematic viscosity: 1.56e-06 ± 1e-08 m2/s
  mass density: 893.3 ± 0.7 kg/m3
303.15 K, x1 = 0.085
  kinematic viscosity: 2.32e-05 ± 2e-07 m2/s
  mass density: 1101.3 ± 0.7 kg/m3
303.15 K, x1 = 0.164
  kinematic viscosity: 2.62e-05 ± 2e-07 m2/s
  mass density: 1092.8 ± 0.7 kg/m3
303.15 K, x1 = 0.2376
  kinematic viscosity: 2.84e-05 ± 2e-07 m2/s
  mass density: 1083.9 ± 0.7 kg/m3
303.15 K, x1 = 0.3062
  kinematic viscosity: 2.92e-05 ± 2e-07 m2/s
  mass density: 1074.5 ± 0.7 kg/m3
303.15 K, x1 = 0.3705
  kinematic viscosity: 2.82e-05 ± 2e-07 m2/s
  mass density: 1064.5 ± 0.7 kg/m3
303.15 K, x1 = 0.4308
  kinematic viscosity: 2.57e-05 ± 2e-07 m2/s
  mass density: 1053.8 ± 0.7 kg/m3
303.15 K, x1 = 0.4874
  kinematic viscosity: 2.22e-05 ± 2e-07 m2/s
  mass density: 1042.7 ± 0.7 kg/m3
303.15 K, x1 = 0.5407
  kinematic viscosity: 1.8e-05 ± 2e-07 m2/s
  mass density: 1030.8 ± 0.7 kg/m3
303.15 K, x1 = 0.5909
  kinematic viscosity: 1.44e-05 ± 1e-07 m2/s
  mass density: 1018.7 ± 0.7 kg/m3
303.15 K, x1 = 0.6384
  kinematic viscosity: 1.13e-05 ± 1e-07 m2/s
  mass density: 1006.8 ± 0.7 kg/m3
303.15 K, x1 = 0.6834
  kinematic viscosity: 8.7e-06 ± 7e-08 m2/s
  mass density: 994 ± 0.7 kg/m3
303.15 K, x1 = 0.7259
  kinematic viscosity: 6.95e-06 ± 6e-08 m2/s
  mass density: 982.6 ± 0.7 kg/m3
303.15 K, x1 = 0.7663
  kinematic viscosity: 5.42e-06 ± 5e-08 m2/s
  mass density: 970.1 ± 0.7 kg/m3
303.15 K, x1 = 0.8047
  kinematic viscosity: 4.27e-06 ± 4e-08 m2/s
  mass density: 957.5 ± 0.7 kg/m3
303.15 K, x1 = 0.876
  kinematic viscosity: 2.84e-06 ± 3e-08 m2/s
  mass density: 934.4 ± 0.7 kg/m3
303.15 K, x1 = 0.9408
  kinematic viscosity: 1.99e-06 ± 2e-08 m2/s
  mass density: 912.8 ± 0.7 kg/m3
303.15 K, x1 = 1
  kinematic viscosity: 1.39e-06 ± 1e-08 m2/s
  mass density: 888.8 ± 0.7 kg/m3
308.15 K, x1 = 0.085
  kinematic viscosity: 1.85e-05 ± 2e-07 m2/s
308.15 K, x1 = 0.164
  kinematic viscosity: 2.07e-05 ± 2e-07 m2/s
308.15 K, x1 = 0.2376
  kinematic viscosity: 2.22e-05 ± 2e-07 m2/s
308.15 K, x1 = 0.3062
  kinematic viscosity: 2.27e-05 ± 2e-07 m2/s
308.15 K, x1 = 0.3705
  kinematic viscosity: 2.19e-05 ± 2e-07 m2/s
308.15 K, x1 = 0.4308
  kinematic viscosity: 2e-05 ± 2e-07 m2/s
308.15 K, x1 = 0.4874
  kinematic viscosity: 1.74e-05 ± 1e-07 m2/s
308.15 K, x1 = 0.5407
  kinematic viscosity: 1.44e-05 ± 1e-07 m2/s
308.15 K, x1 = 0.5909
  kinematic viscosity: 1.15e-05 ± 1e-07 m2/s
308.15 K, x1 = 0.6384
  kinematic viscosity: 9.35e-06 ± 8e-08 m2/s
308.15 K, x1 = 0.6834
  kinematic viscosity: 7.27e-06 ± 6e-08 m2/s
308.15 K, x1 = 0.7259
  kinematic viscosity: 5.89e-06 ± 5e-08 m2/s
308.15 K, x1 = 0.7663
  kinematic viscosity: 4.66e-06 ± 4e-08 m2/s
308.15 K, x1 = 0.8047
  kinematic viscosity: 3.71e-06 ± 3e-08 m2/s
308.15 K, x1 = 0.876
  kinematic viscosity: 2.52e-06 ± 2e-08 m2/s
308.15 K, x1 = 0.9408
  kinematic viscosity: 1.8e-06 ± 2e-08 m2/s
308.15 K, x1 = 1
  kinematic viscosity: 1.27e-06 ± 1e-08 m2/s
